Measurements published in publication PMC9090415, “Discovery of small molecule inhibitors of Plasmodium falciparum apicoplast DNA polymerase” (Journal of Enzyme Inhibition and Medicinal Chemistry, 2022).

Target: P. falciparum apicoplast DNA polymerase (Pf-apPOL) (Plasmodium falciparum, UniProt Q8ILY1)
Test: Fluorescence-based high-throughput DNA polymerase assay (molecular beacon), primary screen and dose-response
Format: biochemical
Experimental: The HT assay employs a molecular beacon, a stem-loop DNA template with a Cy3 dye and the Black Hole Quencher on the 3′ and 5′ ends of the DNA, respectively. Pf-apPOL concentration is based on a calculated absorptivity of ε280 = 56750 M^−1 cm^−1. Reactions were carried out at 25 °C, using Corning 3575 […] (well-volume, 20 µL). Assays testing for compound inhibition composed of reaction buffer (pH 7.9 in 50 mM potassium acetate, 20 mM Tris-acetate and 10 mM magnesium acetate), Pf-apPOL (20 nM), DNA substrate (20 nM), dNTPs (6 µM), and compound (10 µM in DMSO). The DNA and nucleotide substrates (dNTPs) were at concentrations of 20 nM and 6 µM, respectively, in the assay. Pf-apPOL was incubated in the reaction buffer with dNTPs and the compound of interest (10 µM, in the assay) at 25 °C for 10 min. The DNA substrate was then added and the reaction was allowed to proceed for 90 min at 25 °C.
Each assay plate contained 16 negative controls (no Pf-apPOL, DMSO present) and 16 positive controls (Pf-apPOL present, no DMSO). The fluorescence of each well was determined using a BioTek Synergy Neo fluorescence plate reader using excitation and emission wavelengths of 555 and 570 nm, respectively.
In the above, Min is the average of fluorescence emission of the negative controls (substrate only), Max the average fluorescence emission from the positive controls (enzyme + substrate), and Test the emission from the assays in the presence of compounds (enzyme + compound + substrates). […] […] The IC50 of each compound was determined using Equation (2): (2) IC50= Vmax/(1+ (I/IC50)^n)
In the above, n measures cooperativity, with n > 1 indicating synergistic binding of more than a single molecule of the compound.
To identify apPOL inhibitors we utilised our previously developed high-throughput DNA polymerase assay. The HT assay is based on a molecular beacon DNA template that forms a stem-loop with a Cy3 dye and the Black Hole Quencher on the 3′ and 5′ ends of the DNA, respectively. DNA polymerase activity extends an annealed primer through the stem region, displacing the fluorophore from the quencher, thereby increasing its fluorescence (Figure 1(A)). The assay accurately recapitulates the kinetic behaviour of apPOL, as measured through more conventional low-throughput gel-based assays. The Z′ factor for the assay described here was 0.9 across all plates (data not shown).
Figure 1. High-throughput screening. (A) The fluorescent-based DNA polymerase assay used to screen the compound libraries. The DNA template strand is a hairpin loop with a primer annealed to the loop. The 3’ end of the primer is 11 bases away from the 6 bp duplex. Strand displacement activity of the DNA polymerase separates the Cy3 dye from the Black hole quencher leading to an increase in fluorescent signal. (B) The high-throughput assay workflow. The DNA polymerase is incubated with […] compound for 10 min prior to addition of the hairpin substrate. The reaction is quenched at 3 different time points and the fluorescent signal is measured and % inhibition is determined using the provided equation.

Sequence of P. falciparum apicoplast DNA polymerase (Pf-apPOL) (Q8ILY1 entry or part of it): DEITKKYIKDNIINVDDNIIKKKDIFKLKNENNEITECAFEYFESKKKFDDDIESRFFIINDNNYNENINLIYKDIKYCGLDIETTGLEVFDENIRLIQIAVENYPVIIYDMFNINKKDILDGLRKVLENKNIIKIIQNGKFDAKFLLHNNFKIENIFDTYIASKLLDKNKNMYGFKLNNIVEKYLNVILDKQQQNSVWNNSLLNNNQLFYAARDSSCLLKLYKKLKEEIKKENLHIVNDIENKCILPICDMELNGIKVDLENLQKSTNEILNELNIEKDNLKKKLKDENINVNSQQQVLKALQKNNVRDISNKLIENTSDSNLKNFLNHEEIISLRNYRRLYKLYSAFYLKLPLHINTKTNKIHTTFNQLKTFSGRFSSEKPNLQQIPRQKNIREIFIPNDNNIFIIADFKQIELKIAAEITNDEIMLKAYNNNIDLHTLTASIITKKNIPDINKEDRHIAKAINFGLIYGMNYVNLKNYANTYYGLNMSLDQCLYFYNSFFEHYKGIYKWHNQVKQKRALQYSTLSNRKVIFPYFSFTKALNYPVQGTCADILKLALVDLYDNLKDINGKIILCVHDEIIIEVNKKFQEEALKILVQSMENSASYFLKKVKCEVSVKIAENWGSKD

For `CCOC(=O)C(NCc1ccco1)(NC(=O)c1ccco1)C(F)(F)F` (stereo not shown) [KU0276119], the “DNA Pol” value (186 hits, value of the hit list (primary screen); unit not given; 90 min, 10 µM) was 69, the “% inhibition Apo pol 10'” value (DRC-1; 10'; concentration 2.5) was -0.8683% and the “% inhibition Apo pol 10'” value (DRC-1; 10'; concentration 5) was 4.257%. For the same compound, the “% inhibition Apo pol 10'” value (DRC-1; 10'; concentration 10) was 15.6994%, the “% inhibition Apo pol 10'” value (DRC-1; 10'; concentration 20) was 30.4809% and the “% inhibition Apo pol 10'” value (DRC-1; 10'; concentration 40) was 51.156%. For the same compound, the “% inhibition Apo pol 10'” value (DRC-1; 10'; concentration 80) was 69.3233%, the “% inhibition Apol 90'” value (DRC-1; 90'; concentration 2.5) was -1.328% and the “% inhibition Apol 90'” value (DRC-1; 90'; concentration 5) was -2.247%. The “% inhibition Apol 90'” value (DRC-1; 90'; concentration 10) was 3.449%, the “% inhibition Apol 90'” value (DRC-1; 90'; concentration 20) was 14.6625% and the “% inhibition Apol 90'” value (DRC-1; 90'; concentration 40) was 31.3437%. The “% inhibition Apol 90'” value (DRC-1; 90'; concentration 80) was 52.4823%, the “% inhibition apPOL 180'” value (DRC-1; 180'; concentration 2.5) was -2.149% and the “% inhibition apPOL 180'” value (DRC-1; 180'; concentration 5) was -6.365%. For the same compound, the “% inhibition apPOL 180'” value (DRC-1; 180'; concentration 10) was -5.1582%, the “% inhibition apPOL 180'” value (DRC-1; 180'; concentration 20) was 2.395% and the “% inhibition apPOL 180'” value (DRC-1; 180'; concentration 40) was 15.7005%. The “% inhibition apPOL 180'” value (DRC-1; 180'; concentration 80) was 35.8359%, the “% inhibition Apo pol 5'” value (DRC-2, 5', concentration 2.5) was 3% and the “% inhibition Apo pol 5'” value (DRC-2, 5', concentration 5) was 8.49%. The “% inhibition Apo pol 5'” value (DRC-2, 5', concentration 10) was 20%, the “% inhibition Apo pol 5'” value (DRC-2, 5', concentration 20) was 31% and the “% inhibition Apo pol 5'” value (DRC-2, 5', concentration 40) was 44%. For the same compound, the “% inhibition Apo pol 5'” value (DRC-2, 5', concentration 80) was 52%, the “% inhibition Apol 40'” value (DRC-2, 40', concentration 2.5) was 3% and the “% inhibition Apol 40'” value (DRC-2, 40', concentration 5) was 5%. For the same compound, the “% inhibition Apol 40'” value (DRC-2, 40', concentration 10) was 12%, the “% inhibition Apol 40'” value (DRC-2, 40', concentration 20) was 24% and the “% inhibition Apol 40'” value (DRC-2, 40', concentration 40) was 41%. For the same compound, the “% inhibition Apol 40'” value (DRC-2, 40', concentration 80) was 57%, the “% inhibition ApPOL 90'” value (DRC-2, 90', concentration 2.5) was 1.27% and the “% inhibition ApPOL 90'” value (DRC-2, 90', concentration 5) was 0%. The “% inhibition ApPOL 90'” value (DRC-2, 90', concentration 10) was 7%, the “% inhibition ApPOL 90'” value (DRC-2, 90', concentration 20) was 17% and the “% inhibition ApPOL 90'” value (DRC-2, 90', concentration 40) was 36%. For the same compound, the “% inhibition ApPOL 90'” value (DRC-2, 90', concentration 80) was 54%, the “% inhibition apPOL 180'” value (DRC-2, 180', concentration 2.5) was -2.49% and the “% inhibition apPOL 180'” value (DRC-2, 180', concentration 5) was -7%. The “% inhibition apPOL 180'” value (DRC-2, 180', concentration 10) was -2%, the “% inhibition apPOL 180'” value (DRC-2, 180', concentration 20) was 2.7% and the “% inhibition apPOL 180'” value (DRC-2, 180', concentration 40) was 21%. The “% inhibition apPOL 180'” value (DRC-2, 180', concentration 80) was 45%, the “% inhibition Apo pol 5'” value (DRC-2; 5'; concentration 2.5) was 3% and the “% inhibition Apol 40'” value (DRC-2; 40'; concentration 2.5) was 3%. The “DNA Pol” value (primary screen value, 'DNA Pol' only; 90 min, 10 µM) was 69.
